Earlier results on four molecules are cited in patent US20090117199A1, “Method of treatment of cancer” (priority 1998, published 2009).

Like-named read-outs stand apart in the source and are kept apart here.

Data set [1] relates to melanoma. The following applies: cited from earlier work.
Data set [2] relates to melanoma. Conditions: single-agent chemotherapy; cited from earlier work.
[3] abbreviates: IL cisplatin or IL cisplatin with electroporation, lower end of reported results.
Setting [4] is: IL cisplatin or IL cisplatin with electroporation, upper end of reported results.

Regarding bleomycin, the efficacy result with melanoma [1] (single electrochemotherapy treatment, IL, response reduced in larger tumors) is on record as “Substantial efficacy”.
Regarding `CN(C)/N=N/c1[nH]cnc1C(N)=O` [dacarbazine], the “cases in which treatment is successful” value in the data set on melanoma [2] was 10-15%.
With `N.N.[Cl][Pt][Cl]` [cisplatin], the CR with melanoma [1] (setting [3]) was 19%; with melanoma [1] (setting [4]), 47%. Further, the ORR is 38% with melanoma [1] (setting [3]), 53% in the data set with melanoma [1] (setting [4]), 44% in the data set on melanoma [1] (lesions having a median diameter of 3.0 cm) and 53% with melanoma [1] (lesions with a median diameter of 0.6 cm). The figures for the PR in the data set on melanoma [1] (setting [3]) and with melanoma [1] (setting [4]) were 19% and 7%, respectively.

B1: IFNγ: IL interferon (protein, UniProt P01579 24-161, looked up)
Interferon gamma: QDPYVKEAENLKKYFNAGHSDVADNGTLFLGILKNWKEESDRKIMQSQIVSFYFKLFKNFKDDQSIQKSVETIKEDMNVKFFNSNKKKRDDFEKLTNYSVTDLNVQRKAIHELIQVMAELSPAAKTGKRKRSQMLFRG
Consider B1, for which the response entry with melanoma [1] (IL therapy, prior reports) is “no result of transient response”. Also, in the data set on melanoma [1] (in vivo), the “toxicity and side effects” value was “significant toxicity and side effects”.
